Laboratory results: PMC11352108, “Anti-Biofilm and Anti-Inflammatory Properties of the Truncated Analogs of the Scorpion Venom-Derived Peptide IsCT against Pseudomonas aeruginosa” (Antibiotics, 2024)
Where no end group is shown, it is not given here.

Tests used:
[1] = tested on: P. aeruginosa PAO1; experiment: Growth curve assay; type: cell-based, Pseudomonas aeruginosa; details: 150 μM; for OD600nm, Mean / OD600nm, Exp.1 / OD600nm, Exp.2: 37 °C, 150 rpm; for OD600nm, Mean: mean of 2 experiments; for OD600nm, Exp.1: replicate Exp.1; for OD600nm, Exp.2: replicate Exp.2
Method: The effect of the IsCT-Δ6-8 peptide on the growth of P. aeruginosa was assessed as previously described. A culture of P. aeruginosa PAO1 was grown at a concentration of 10^6 CFU/ mL in the presence or absence of the IsCT-Δ6-8 peptide (final concentration, 150 µM) at 37 °C, with agitation at 150 rpm. The OD600 nm was then recorded at 0, 6, 12, 18, and 24 h.

[2] = tested on: RAW 264.7 macrophages; experiment: Cytotoxicity assay (MTT); type: cell-based, murine; details: 48 h; for % Viability, Exp.1: replicate Exp.1; for % Viability, Exp.2: replicate Exp.2
Method: The murine macrophage cell line RAW264.7 (TIB-71) was obtained from American Type Culture Collection (ATCC; Manassas, VA, USA). RAW 264.7 cells were cultured in DMEM (HyClone^TM, Logan, UT, USA) supplemented with 10% (v/v) heat-inactivated fetal bovine serum (Gibco, Fisher Scientific, Göteborg, Sweden), 2 mM L-glutamine (PAA Laboratories GmbH, Pasching, Austria), 10 mM 4-(2-hydroxyethyl)-1-piperazineethanesulfonic acid (HyClone^TM, Logan, UT, USA), 100 U/mL penicillin, and 100 µg/mL streptomycin (PAA). RAW 264.7 cells were grown in a 5% CO2 at 37 °C.
The cytotoxic effect of the IsCT-Δ6-8 peptide was assessed using the tetrazolium-based 3-(4,5-dimethylthiazol-2-yl)-2,5-diphenyltetrazolium bromide (MTT) assay. RAW 264.7 cells at 3.5 × 10^5 cells were seeded in a 96-well microtiter plate and incubated at 37 °C for 1 h under 5% CO2. Then, the cells were treated with or without the IsCT-Δ6-8 peptide at concentrations ranging from 37.5 μM to 150 μM for 48 h at 37 °C under 5% CO2. After incubation, 20 µL of MTT (5 mg/mL) was added in each well, and the plate was incubated for another 3 h. The supernatant was then discarded, and 100 µL of DMSO was added to solubilize formazan crystals. The plate was subsequently read at OD540 nm using a BioTek Synergy HT microplate reader. The percent cell viability was calculated using the following equation:(2) % Cell viability=OD of treated cells/OD of untreated cells×100

[3] = tested on: NO production in P. aeruginosa LPS-stimulated RAW 264.7 macrophages; experiment: Nitric oxide measurement (Griess reagent); type: cell-based, murine; details: 48 h; for Nitrite (µM), Exp.1: replicate Exp.1; for Nitrite (µM), Mean: mean of 2 experiments, LPS alone 24.5278; for Nitrite (µM), Exp.2: replicate Exp.2
Method: RAW 264.7 cells (3.5 × 10^5) were stimulated with P. aeruginosa lipopolysaccharide (100 ng/mL; Sigma, St. Louis, MO, USA) in the presence or absence of the IsCT-Δ6-8 peptide (37.5–150 μM, final concentration). After incubation at 37 °C under 5% CO2 for 48 h, supernatants were collected. The levels of nitrite (a stable breakdown of NO) were then determined using the Griess reagent system (Promega, Madison, Wisconsin, USA). The IL-6 levels in culture supernatant were quantified with the BioLegend ELISA MAXTM Deluxe Set according to the manufacturer’s protocols.

[4] = tested on: sheep red blood cells; experiment: Hemolytic assay; type: cell-based
Method: A hemolytic assay was carried out according to the previously described method using commercially sourced sheep red blood cells (Professional Nanomed Company Limited, Bangkok, Thailand). One hundred microliters of a 2% sheep red blood cell suspension prepared in phosphate-buffered saline (PBS) pH 7.4. was incubated for 1 h at 37 °C with 100 μL of the studied peptides (final concentration of 150 µM). After centrifugation at 1000× g for 5 min, 100 μL of supernatant was transferred to new 96-well plates, and the release of hemoglobin was monitored, measuring an optical density (OD) at 405 nm using a BioTek Synergy HT microplate reader. Red blood cells treated with PBS pH 7.4 were used as a negative control, while those treated with 1% Triton X-100 were used as a positive control. The percent hemolysis was calculated as follows:(1) % Hemolysis=OD405 nm of the test peptide−OD405 nm of negative control/OD405 nm of positive control−OD405 nm of negative control × 100

[5] = tested on: pyocyanin production by P. aeruginosa PAO1; experiment: Pyocyanin assay (chloroform extraction); type: cell-based, Pseudomonas aeruginosa; details: 24 h, 37 °C; for Pyocyanin production (%control), Exp.1: replicate Exp.1; for Pyocyanin production (%control), Mean: mean of Exp.1-3; for Pyocyanin production (%control), Exp.2: replicate Exp.2; for Pyocyanin production (%control), Exp.3: replicate Exp.3
Method: The effect of IsCT-Δ6-8 peptide on the production of pyocyanin pigments produced by P. aeruginosa PAO1 was assessed using the protocol described previously. In brief, 750 μL of P. aeruginosa culture (10^8 CFU/mL, final concentration) and 250 μL of the test peptide prepared in LB broth (final concentrations ranged from 37.5 μM to 150 μM) were incubated at 37 °C for 24 h with agitation (150 rpm). A P. aeruginosa culture without the IsCT-Δ6-8 peptide served as an untreated control. Thereafter, supernatants were collected by centrifugation at 3900× g for 10 min, and pyocyanin pigment was extracted twice using chloroform/0.2 N HCl. Centrifugation was performed at 3900× g for 10 min before the pink-colored solution was collected, and the absorbance was measured at […].

[6] = peptide 37.5 µM with LPS 100 ng/mL
[7] = peptide 75 µM with LPS 100 ng/mL
[8] = peptide 150 µM with LPS 100 ng/mL

Sequence: ILGKIIKSLF [IsCT-Δ6-8]
- OD600nm, Mean ([1]; 0 h): 0.0000
- OD600nm, Exp.1 ([1]; 0 h): 0.0000
- OD600nm, Exp.2 ([1]; 0 h): 0.0000
- OD600nm, Mean ([1]; 6 h, untreated control 0.3954): 0.2100
- OD600nm, Exp.1 ([1]; 6 h, untreated control 0.3955): 0.2055
- OD600nm, Exp.2 ([1]; 6 h, untreated control 0.3953): 0.2145
- OD600nm, Mean ([1]; 12 h, untreated control 0.5425): 0.4723
- OD600nm, Exp.1 ([1]; 12 h, untreated control 0.5353): 0.4765
- OD600nm, Exp.2 ([1]; 12 h, untreated control 0.5498): 0.4680
- OD600nm, Mean ([1]; 18 h, untreated control 0.6067): 0.5898
- OD600nm, Exp.1 ([1]; 18 h, untreated control 0.6213): 0.5830
- OD600nm, Exp.2 ([1]; 18 h, untreated control 0.5922): 0.5965
- OD600nm, Mean ([1]; 24 h, untreated control 0.6209): 0.6033
- OD600nm, Exp.1 ([1]; 24 h, untreated control 0.6330): 0.5450
- OD600nm, Exp.2 ([1]; 24 h, untreated control 0.6088): 0.6615
- Growth of P. aeruginosa at early time points (in words) ([1]; 6 h and 12 h, compared to untreated control culture): slow growth rate
- Growth of P. aeruginosa after prolonged exposure (in words) ([1]; 18 h and 24 h, versus untreated control (p > 0.05)): comparable to that of the untreated control culture
- % Viability, Exp.1 ([2]; 37.5 µM, 37 °C, 5% CO2, MTT, OD 540 nm): 109.403%
- % Viability, Exp.2 ([2]; 37.5 µM, MTT): 94.438%
- % Viability, Exp.1 ([2]; 75 µM, MTT): 102.742%
- % Viability, Exp.2 ([2]; 75 µM, MTT): 96.302%
- % Viability, Exp.1 ([2]; 150 µM, MTT): 94.479%
- % Viability, Exp.2 ([2]; 150 µM, MTT): 100.171%
- Viability of RAW 264.7 macrophages (in words) ([2]; 37.5–150 μM, MTT, compared with untreated control): not significantly changed
- Effect on LPS-induced nitrite increase (in words) ([3]; 37.5–150 μM, in particular at 150 μM (p < 0.05 vs LPS-stimulated)): reduced
- Nitrite (µM), Exp.1 ([3]; peptide 37.5 µM with LPS 100 ng/mL, 37 °C): 24.3889 µM
- Nitrite (µM), Mean [3, 6]: 24.2500 µM
- Nitrite (µM), Exp.2 [3, 6]: 24.1111 µM
- Nitrite (µM), Mean [3, 7]: 23.5556 µM
- Nitrite (µM), Exp.1 [3, 7]: 23.8889 µM
- Nitrite (µM), Exp.2 [3, 7]: 23.2222 µM
- Nitrite (µM), Mean [3, 8]: 21.0833 µM
- Nitrite (µM), Exp.1 [3, 8]: 21.5000 µM
- Nitrite (µM), Exp.2 [3, 8]: 20.6667 µM
- Hemolytic activity (in words) ([4]; sheep erythrocytes, concentrations as high as 150 μM): decreased hemolytic activity
- % Hemolysis, Exp.1 ([4]; sheep red blood cells, 1 h, 37 °C, peptides 150 μM (Triton X-100 1%), replicate Exp.1): 1.56%
- % Hemolysis, Exp.2 ([4]; sheep red blood cells, 1 h, 37 °C, peptides 150 μM (Triton X-100 1%), replicate Exp.2): 0.72%
- % Hemolysis, Exp.3 ([4]; sheep red blood cells, 1 h, 37 °C, peptides 150 μM (Triton X-100 1%), replicate Exp.3): 3.45%
- Pyocyanin production (%control), Exp.1 ([5]; 37.5 µM, 10^8 CFU/mL, LB broth, absorbance 380 nm): 124.961 %control
- Pyocyanin production (%control), Mean ([5]; 37.5 µM): 82.972 %control
- Pyocyanin production (%control), Exp.2 ([5]; 37.5 µM): 54.723 %control
- Pyocyanin production (%control), Exp.3 ([5]; 37.5 µM): 69.231 %control
- Pyocyanin production (%control), Mean ([5]; 75 µM): 69.677 %control
- Pyocyanin production (%control), Exp.1 ([5]; 75 µM): 120.493 %control
- Pyocyanin production (%control), Exp.2 ([5]; 75 µM): 42.094 %control
- Pyocyanin production (%control), Exp.3 ([5]; 75 µM): 46.444 %control
- Pyocyanin production (%control), Mean ([5]; 150 µM): 48.905 %control
- Pyocyanin production (%control), Exp.1 ([5]; 150 µM): 76.348 %control
- Pyocyanin production (%control), Exp.2 ([5]; 150 µM): 36.550 %control
- Pyocyanin production (%control), Exp.3 ([5]; 150 µM): 33.817 %control
